# Data published in US8846951B2 (AbbVie Inc., priority 2009, dated 2014).
# Where two headings read alike, the source gives them in different places.
# What was measured:
# 5HT2C receptors = target: T1, 5HT2C receptors (Homo sapiens, UniProt P28335); test: Human 5-HT2C functional high throughput screening assay in CHO-K1 cells (calcium flux); type: cell-based; parameters: expressed in transfected cells; host or cells: CHO-K1 cells; conditions: for EC50: CHO-K1 cells, calcium flux; for Emax: CHO-K1, 5-HT2C, maximum functional response as percentage relative to the effect of serotonin
# T1 sequence (P28335 33-458): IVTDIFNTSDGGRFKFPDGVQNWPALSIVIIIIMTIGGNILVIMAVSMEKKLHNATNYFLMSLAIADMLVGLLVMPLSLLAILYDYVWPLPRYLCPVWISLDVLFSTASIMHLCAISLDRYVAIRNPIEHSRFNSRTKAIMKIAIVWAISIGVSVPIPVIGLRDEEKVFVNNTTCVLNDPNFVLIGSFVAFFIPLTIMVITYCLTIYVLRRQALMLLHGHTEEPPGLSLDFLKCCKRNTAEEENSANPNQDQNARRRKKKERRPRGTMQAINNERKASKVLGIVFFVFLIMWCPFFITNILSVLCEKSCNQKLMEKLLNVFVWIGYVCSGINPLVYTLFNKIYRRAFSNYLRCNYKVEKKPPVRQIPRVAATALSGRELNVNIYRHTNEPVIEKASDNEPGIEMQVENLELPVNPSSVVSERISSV
# In short: (§1)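 Calcium flux in CHO-K1 cells overexpressing each receptor, using Ca4 dye with probenecid and FLIPR detection. Top concentration was 10 μM, diluted 1:10 across 6 points, and efficacy was scaled to serotonin.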
# 5HT2B receptors = target: T2, 5HT2B receptors (Homo sapiens, UniProt P41595); test: Human 5-HT2B functional high throughput screening assay in CHO-K1 cells (calcium flux); type: cell-based; conditions: for EC50: CHO-K1 cells, calcium flux
# T2 construct: expressed in transfected cells; host or cells: CHO-K1 cells
# T2 sequence (P41595 whole entry): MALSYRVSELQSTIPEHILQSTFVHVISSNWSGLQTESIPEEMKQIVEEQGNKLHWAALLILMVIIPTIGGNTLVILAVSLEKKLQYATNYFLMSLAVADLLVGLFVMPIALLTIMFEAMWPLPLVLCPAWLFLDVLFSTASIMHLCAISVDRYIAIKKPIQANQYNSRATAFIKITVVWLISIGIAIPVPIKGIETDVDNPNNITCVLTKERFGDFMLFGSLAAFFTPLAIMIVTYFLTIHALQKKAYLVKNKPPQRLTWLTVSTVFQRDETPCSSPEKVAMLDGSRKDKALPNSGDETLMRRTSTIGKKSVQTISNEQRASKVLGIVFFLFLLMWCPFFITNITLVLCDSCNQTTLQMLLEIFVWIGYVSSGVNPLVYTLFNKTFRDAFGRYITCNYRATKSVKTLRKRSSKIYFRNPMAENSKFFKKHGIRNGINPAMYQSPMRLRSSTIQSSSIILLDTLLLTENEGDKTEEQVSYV
# In short: as §1
# [1] = 5-HT2C agonist activity, read-out: EC50
# [2] = 5-HT2B agonist activity, read-out: EC50
# [3] = 5-HT2B, maximum functional response as percentage relative to the effect of serotonin
# [4] = CHO-K1, 5-HT2B, maximum functional response as percentage relative to the effect of serotonin, read-out: Emax
EC50 (5HT2C receptors; [1]),EC50 (5HT2B receptors; [2]),Emax (5HT2C receptors; read-out: Emax),Emax (5HT2B receptors; [4]),SMILES,Emax (5HT2C receptors),Emax (5HT2B receptors; [3]),"EC50 (5HT2C receptors; EC50, 5-HT2C agonist activity)",Emax (5HT2B receptors; CHO-K1),"EC50 (5HT2B receptors; EC50, 5-HT2B agonist activity)"
,,,,"O=S(=O)(c1cccc(Cl)c1)N1Cc2cccnc2[C@@H]2CNC[C@H]2C1 (relative stereo) [Example 359, Trans-6-[(3-chlorophenyl)sulfonyl]-5,6,7,7a,8,9,10,10a-octahydropyrido[3,2-c]pyrrolo[3,4-e]azepine]",80%,,100 nM,30%,500 nM
,,,,"O=S(=O)(c1ccc(Br)s1)N1Cc2cccnc2[C@@H]2CNC[C@H]2C1 (relative stereo) [Example 360, Trans-6-[(5-bromo-2-thienyl)sulfonyl]-5,6,7,7a,8,9,10,10a-octahydropyrido[3,2-c]pyrrolo[3,4-e]azepine]",80%,,10 nM,20%,300 nM
,,,,"O=S(=O)(c1ccccc1F)N1Cc2cccnc2[C@@H]2CNC[C@H]2C1 (relative stereo) [Example 361, Trans-6-[(2-fluorophenyl)sulfonyl]-5,6,7,7a,8,9,10,10a-octahydropyrido[3,2-c]pyrrolo[3,4-e]azepine]",80%,,100 nM,80%,300 nM
,,,,"O=S(=O)(c1ccccc1Cl)N1Cc2cccnc2[C@@H]2CNC[C@H]2C1 (relative stereo) [Example 362, Trans-6-[(2-chlorophenyl)sulfonyl]-5,6,7,7a,8,9,10,10a-octahydropyrido[3,2-c]pyrrolo[3,4-e]azepine]",80%,,100 nM,75%,300 nM
200 nM,1000 nM,65%,15%,"Cc1cc(C)c(S(=O)(=O)N2Cc3cccnc3[C@@H]3CNC[C@H]3C2)c(C)c1 (relative stereo) [Example 363, Trans-6-(mesitylsulfonyl)-5,6,7,7a,8,9,10,10a-octahydropyrido[3,2-c]pyrrolo[3,4-e]azepine]",,,,,
100 nM,90 nM,85%,90%,"O=S(=O)(c1ccccc1OC(F)(F)F)N1Cc2cccnc2[C@@H]2CNC[C@H]2C1 (relative stereo) [Example 364, Trans-6-{[2-(trifluoromethoxy)phenyl]sulfonyl}-5,6,7,7a,8,9,10,10a-octahydropyrido[3,2-c]pyrrolo[3,4-e]azepine]",,,,,
500 nM,800 nM,80%,30%,"O=S(=O)(c1ccccc1C(F)(F)F)N1Cc2cccnc2[C@@H]2CNC[C@H]2C1 (relative stereo) [Example 365, Trans-6-{[2-(trifluoromethyl)phenyl]sulfonyl}-5,6,7,7a,8,9,10,10a-octahydropyrido[3,2-c]pyrrolo[3,4-e]azepine]",,,,,
100 nM,200 nM,85%,85%,"O=S(=O)(c1cccc(OC(F)(F)F)c1)N1Cc2cccnc2[C@@H]2CNC[C@H]2C1 (relative stereo) [Example 366, Trans-6-{[3-(trifluoromethoxy)phenyl]sulfonyl}-5,6,7,7a,8,9,10,10a-octahydropyrido[3,2-c]pyrrolo[3,4-e]azepine]",,,,,
20 nM,> 10000 nM,90%,,"CC(O)c1cccc(-c2cccc3c2OCC[C@H]2CNC[C@H]32)c1 (relative stereo) [Example 367, 1-{3-[Trans-2,3,3a,4,5,10b-hexahydro-1H-[1]benzoxepino[4,5-c]pyrrol-7-yl]phenyl}ethanol]",,inactive,,,
,,,,"c1cncc(-c2cccc3c2OCC[C@H]2CNC[C@H]32)c1 (relative stereo) [Example 368, Trans-7-(pyridin-3-yl)-2,3,3a,4,5,10b-hexahydro-1H-[1]benzoxepino[4,5-c]pyrrole]",90%,,10 nM,20%,1000 nM
600 nM,> 10000 nM,95%,,"CNC(=O)c1ccc(-c2cccc3c2OCC[C@H]2CNC[C@H]32)cc1 (relative stereo) [Example 371, 4-[Trans-2,3,3a,4,5,10b-hexahydro-1H-[1]benzoxepino[4,5-c]pyrrol-7-yl]-N-methylbenzamide]",,inactive,,,
,,,,"Cc1ccc2c(c1)OCC[C@H]1CNC[C@H]21 (relative stereo) [Example 373, Trans-8-methyl-2,3,3a,4,5,10b-hexahydro-1H-[1]benzoxepino[4,5-c]pyrrole]",100%,,6 nM,70%,50 nM
,,,,"Oc1cccc2c1[C@H]1CNC[C@@H]1CCO2 (relative stereo) [Example 374, Trans-2,3,3a,4,5,10b-hexahydro-1H-[1]benzoxepino[4,5-c]pyrrol-10-ol]",90%,,80 nM,30%,700 nM
,,,,"CN1CC[C@@H]2CNC[C@H]2c2cccc(Cl)c21 (relative stereo) [Example 375, Trans-7-chloro-6-methyl-1,2,3,3a,4,5,6,10b-octahydropyrrolo[3,4-d][1]benzazepine]",100%,,0.3 nM,95%,10 nM
,,,,"Clc1cccc2c1OCC[C@H]1CNC[C@H]21 (relative stereo) [Example 376, Trans-7-chloro-2,3,3a,4,5,10b-hexahydro-1H-[1]benzoxepino[4,5-c]pyrrole]",90%,,0.2 nM,70%,200 nM
,,,,"Brc1cccc2c1[C@H]1CNC[C@@H]1CCO2 (relative stereo) [Example 377, Trans-10-bromo-2,3,3a,4,5,10b-hexahydro-1H-[1]benzoxepino[4,5-c]pyrrole]",100%,,200 nM,30%,30 nM
0.4 nM,> 10000 nM,105%,,"CC(C)c1cccc(-c2ccc3c(c2)C(=O)NC[C@@H]2CNC[C@@H]32)c1 (relative stereo) [Example 378, Trans-8-(3-isopropylphenyl)-2,3,3a,4,5,10b-hexahydropyrrolo[3,4-d][2]benzazepin-6(1H)-one]",,inactive,,,

SMILES,EC50 (5HT2C receptors; [1]),EC50 (5HT2B receptors; [2]),Emax (5HT2C receptors; read-out: Emax),Emax (5HT2B receptors; [4]),Emax (5HT2C receptors),Emax (5HT2B receptors; [3]),"EC50 (5HT2C receptors; EC50, 5-HT2C agonist activity)",Emax (5HT2B receptors; CHO-K1),"EC50 (5HT2B receptors; EC50, 5-HT2B agonist activity)"
"O=S(=O)(c1cccs1)N1Cc2cccnc2[C@@H]2CNC[C@H]2C1 (relative stereo) [Example 358, Trans-6-(2-thienylsulfonyl)-5,6,7,7a,8,9,10,10a-octahydropyrido[3,2-c]pyrrolo[3,4-e]azepine]",300 nM,> 10000 nM,,,20%,inactive,,,
"c1cc(-c2ccncc2)c2c(c1)[C@H]1CNC[C@@H]1CCO2 (relative stereo) [Example 369, Trans-7-(pyridin-4-yl)-2,3,3a,4,5,10b-hexahydro-1H-[1]benzoxepino[4,5-c]pyrrole]",300 nM,> 10000 nM,,,90%,inactive,,,
"CN1C[C@@H]2CCOc3c(-c4cccnc4)cccc3[C@H]2C1 (relative stereo) [Example 370, Trans-2-methyl-7-(pyridin-3-yl)-2,3,3a,4,5,10b-hexahydro-1H-[1]benzoxepino[4,5-c]pyrrole]",400 nM,> 10000 nM,,,90%,inactive,,,
"COc1cccc2c1OCC[C@H]1CNC[C@H]21 (relative stereo) [Example 372, Trans-7-methoxy-2,3,3a,4,5,10b-hexahydro-1H-[1]benzoxepino[4,5-c]pyrrole]",1000 nM,200 nM,,,70%,,,25%,
